Results published in US20220202899A1, “COMPOSITION FOR PREVENTION OR TREATMENT OF HAIR LOSS INCLUDING HAPLN1” (HAPLNSCIENCE INC., priority 2019, published 2022).

How the values were obtained:
HAS2 = HAS2 protein in human hair germinal matrix cells deficient in endogenous HA (4-MU); format: cell-based; conditions: 4-MU-treated cells; HAPLN1 25 ng/mL; TGF-β2 2 ng/mL
Description: (§1) 4-MU (4-methylumbelliferone) is an inhibitor of HA-producing hyaluronan synthase 2 (HAS2), which produces HA. In order to confirm the effect of HA produced in cells, HA production in cells was inhibited using 4-MU.
(§2) The human hair germinal matrix cells, in which the endogenous HA was inhibited by treating 4-MU, were dispensed into a poly-D-lysine 6-well plate at a concentration of 5.0×10^4 per well and cultured for 24 hours. After 24 hours, the medium was removed and replaced with a new serum-free medium. HAPLN1 was treated with 25 ng/mL, and after 1 hour, TGF-β2 (2 ng/mL) was treated. After 23 hours, cells were collected, a lysis buffer (25 mM Tris-HCl, 1 mM EDTA, 0.1% Triton-X100, phosphatase inhibitor, and protease inhibitor) was added, and all the cells were broken through sonication. HAS2 and TβRII in the sample were measured using Western blotting. The optical density of each of HAS2 and TβRII was compared to that of GAPDH using a densitometer.

TβRII = TβRII protein in human hair germinal matrix cells deficient in endogenous HA (4-MU); format: cell-based; conditions: 4-MU-treated cells; HAPLN1 25 ng/mL; TGF-β2 2 ng/mL
Description: as §1, §2

Cc1cc(=O)oc2cc(O)ccc12 [4-MU, 4-methylumbelliferone, reference compound]
HAS2 level (HAS2): decreased | TβRII level (TβRII): decreased
